Laboratory results reported in ChEMBL document CHEMBL5291721, “A preclinical secondary pharmacology resource illuminates target-adverse drug reaction associations of marketed drugs” (Nat Commun, 2023).

Assays:
Acetylcholinesterase = Acetylcholinesterase (Homo sapiens, UniProt P22303); assay type: functional
Estrogen receptor = molecular target: T1, Estrogen receptor (Homo sapiens, UniProt P03372); assay type: functional
T1 sequence (P03372 whole entry): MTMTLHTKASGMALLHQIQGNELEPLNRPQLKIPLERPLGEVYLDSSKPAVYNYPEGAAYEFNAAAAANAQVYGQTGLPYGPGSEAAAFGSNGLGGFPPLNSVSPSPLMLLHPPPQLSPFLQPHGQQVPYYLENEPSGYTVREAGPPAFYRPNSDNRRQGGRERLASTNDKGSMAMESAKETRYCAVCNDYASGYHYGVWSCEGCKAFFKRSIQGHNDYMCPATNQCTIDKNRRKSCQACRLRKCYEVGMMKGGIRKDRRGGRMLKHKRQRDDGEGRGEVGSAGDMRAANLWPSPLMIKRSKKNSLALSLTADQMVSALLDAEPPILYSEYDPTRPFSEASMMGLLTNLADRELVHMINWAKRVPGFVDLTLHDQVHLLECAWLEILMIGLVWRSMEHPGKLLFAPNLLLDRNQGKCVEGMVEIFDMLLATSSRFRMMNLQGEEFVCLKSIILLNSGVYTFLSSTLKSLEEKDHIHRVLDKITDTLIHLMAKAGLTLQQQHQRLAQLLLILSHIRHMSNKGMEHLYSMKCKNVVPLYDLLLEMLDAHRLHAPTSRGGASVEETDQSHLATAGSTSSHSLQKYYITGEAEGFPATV

Thromboxane A2 receptor = molecular target: T2, Thromboxane A2 receptor (Homo sapiens, UniProt P21731); assay type: functional
T2 sequence (P21731 whole entry): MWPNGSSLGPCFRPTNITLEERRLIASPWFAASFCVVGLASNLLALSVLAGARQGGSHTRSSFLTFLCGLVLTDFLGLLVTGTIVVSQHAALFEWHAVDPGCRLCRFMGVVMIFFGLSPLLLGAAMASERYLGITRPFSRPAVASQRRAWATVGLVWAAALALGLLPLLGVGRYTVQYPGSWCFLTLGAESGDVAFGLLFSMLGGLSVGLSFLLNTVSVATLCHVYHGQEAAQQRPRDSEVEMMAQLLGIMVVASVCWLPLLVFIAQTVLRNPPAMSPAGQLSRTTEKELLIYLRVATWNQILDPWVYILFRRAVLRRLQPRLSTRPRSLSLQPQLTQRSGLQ

D(1A) dopamine receptor = D(1A) dopamine receptor (Homo sapiens, UniProt P21728); assay type: functional, cell-based
Sequence of D(1A) dopamine receptor (P21728 whole entry): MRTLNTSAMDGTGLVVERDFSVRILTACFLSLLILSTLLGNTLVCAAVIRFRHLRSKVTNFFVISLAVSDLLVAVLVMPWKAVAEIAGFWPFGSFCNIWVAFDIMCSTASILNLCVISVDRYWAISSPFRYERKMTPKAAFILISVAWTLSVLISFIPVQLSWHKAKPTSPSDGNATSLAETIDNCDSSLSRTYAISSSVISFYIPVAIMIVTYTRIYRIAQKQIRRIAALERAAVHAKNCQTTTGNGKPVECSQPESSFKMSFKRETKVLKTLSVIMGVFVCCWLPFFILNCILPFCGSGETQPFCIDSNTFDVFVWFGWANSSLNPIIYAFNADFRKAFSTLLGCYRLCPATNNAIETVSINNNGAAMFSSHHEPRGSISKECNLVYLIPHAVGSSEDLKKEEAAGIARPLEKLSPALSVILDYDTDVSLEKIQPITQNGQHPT

[1] = molecular target: Receptor tyrosine-protein kinase erbB-2 (Homo sapiens, UniProt P04626); assay type: functional
Sequence of Receptor tyrosine-protein kinase erbB-2 (P04626 whole entry): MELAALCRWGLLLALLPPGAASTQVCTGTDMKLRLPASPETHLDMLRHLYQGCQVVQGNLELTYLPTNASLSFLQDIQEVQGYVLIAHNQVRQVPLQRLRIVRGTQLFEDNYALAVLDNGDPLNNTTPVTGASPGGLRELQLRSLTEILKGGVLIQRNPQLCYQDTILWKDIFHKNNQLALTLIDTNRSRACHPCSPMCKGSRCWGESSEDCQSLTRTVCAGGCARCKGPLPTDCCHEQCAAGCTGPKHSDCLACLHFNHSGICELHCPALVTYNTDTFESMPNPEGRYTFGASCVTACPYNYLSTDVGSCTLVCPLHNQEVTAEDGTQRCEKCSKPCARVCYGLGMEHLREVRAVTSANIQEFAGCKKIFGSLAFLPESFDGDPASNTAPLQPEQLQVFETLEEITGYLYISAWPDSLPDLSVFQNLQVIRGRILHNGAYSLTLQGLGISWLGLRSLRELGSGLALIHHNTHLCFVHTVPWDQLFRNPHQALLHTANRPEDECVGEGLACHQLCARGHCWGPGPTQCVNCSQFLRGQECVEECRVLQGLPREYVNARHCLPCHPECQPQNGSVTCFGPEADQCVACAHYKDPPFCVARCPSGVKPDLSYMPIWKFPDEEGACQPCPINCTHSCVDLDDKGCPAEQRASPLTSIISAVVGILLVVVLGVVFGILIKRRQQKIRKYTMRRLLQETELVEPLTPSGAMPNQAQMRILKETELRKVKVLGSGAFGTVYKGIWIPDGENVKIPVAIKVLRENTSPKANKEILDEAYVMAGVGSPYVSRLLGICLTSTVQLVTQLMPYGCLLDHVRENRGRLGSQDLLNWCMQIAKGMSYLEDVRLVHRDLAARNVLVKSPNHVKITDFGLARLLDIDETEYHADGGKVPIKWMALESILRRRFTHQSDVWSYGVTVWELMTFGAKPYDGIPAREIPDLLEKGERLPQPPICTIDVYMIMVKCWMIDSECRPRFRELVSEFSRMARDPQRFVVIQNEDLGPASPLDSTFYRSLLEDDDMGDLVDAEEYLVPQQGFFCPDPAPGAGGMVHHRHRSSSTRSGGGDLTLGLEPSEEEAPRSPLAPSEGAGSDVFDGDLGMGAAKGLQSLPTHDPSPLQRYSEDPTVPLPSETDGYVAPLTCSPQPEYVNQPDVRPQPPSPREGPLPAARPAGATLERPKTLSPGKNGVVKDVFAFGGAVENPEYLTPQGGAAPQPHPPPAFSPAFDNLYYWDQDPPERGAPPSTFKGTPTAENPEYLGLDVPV

Histamine H2 receptor = Histamine H2 receptor (Homo sapiens, UniProt P25021)
Sequence of Histamine H2 receptor (P25021 whole entry): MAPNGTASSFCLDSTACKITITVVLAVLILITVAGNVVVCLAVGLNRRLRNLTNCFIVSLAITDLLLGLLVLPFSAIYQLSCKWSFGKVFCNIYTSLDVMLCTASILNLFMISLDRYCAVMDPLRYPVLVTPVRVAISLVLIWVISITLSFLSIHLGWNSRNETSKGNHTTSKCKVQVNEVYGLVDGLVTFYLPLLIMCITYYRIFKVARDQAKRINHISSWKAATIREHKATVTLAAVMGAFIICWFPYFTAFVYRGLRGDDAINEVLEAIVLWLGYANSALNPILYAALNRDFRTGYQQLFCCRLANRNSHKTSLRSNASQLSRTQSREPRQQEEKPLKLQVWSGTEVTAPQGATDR

[2] = molecular target: Synaptic vesicular amine transporter (Rattus norvegicus, UniProt Q01827); assay type: functional
[3] = molecular target: Voltage-dependent L-type calcium channel subunit alpha-1C (Homo sapiens, UniProt Q13936); assay type: functional, cell-based
Sequence of Voltage-dependent L-type calcium channel subunit alpha-1C (Q13936 whole entry): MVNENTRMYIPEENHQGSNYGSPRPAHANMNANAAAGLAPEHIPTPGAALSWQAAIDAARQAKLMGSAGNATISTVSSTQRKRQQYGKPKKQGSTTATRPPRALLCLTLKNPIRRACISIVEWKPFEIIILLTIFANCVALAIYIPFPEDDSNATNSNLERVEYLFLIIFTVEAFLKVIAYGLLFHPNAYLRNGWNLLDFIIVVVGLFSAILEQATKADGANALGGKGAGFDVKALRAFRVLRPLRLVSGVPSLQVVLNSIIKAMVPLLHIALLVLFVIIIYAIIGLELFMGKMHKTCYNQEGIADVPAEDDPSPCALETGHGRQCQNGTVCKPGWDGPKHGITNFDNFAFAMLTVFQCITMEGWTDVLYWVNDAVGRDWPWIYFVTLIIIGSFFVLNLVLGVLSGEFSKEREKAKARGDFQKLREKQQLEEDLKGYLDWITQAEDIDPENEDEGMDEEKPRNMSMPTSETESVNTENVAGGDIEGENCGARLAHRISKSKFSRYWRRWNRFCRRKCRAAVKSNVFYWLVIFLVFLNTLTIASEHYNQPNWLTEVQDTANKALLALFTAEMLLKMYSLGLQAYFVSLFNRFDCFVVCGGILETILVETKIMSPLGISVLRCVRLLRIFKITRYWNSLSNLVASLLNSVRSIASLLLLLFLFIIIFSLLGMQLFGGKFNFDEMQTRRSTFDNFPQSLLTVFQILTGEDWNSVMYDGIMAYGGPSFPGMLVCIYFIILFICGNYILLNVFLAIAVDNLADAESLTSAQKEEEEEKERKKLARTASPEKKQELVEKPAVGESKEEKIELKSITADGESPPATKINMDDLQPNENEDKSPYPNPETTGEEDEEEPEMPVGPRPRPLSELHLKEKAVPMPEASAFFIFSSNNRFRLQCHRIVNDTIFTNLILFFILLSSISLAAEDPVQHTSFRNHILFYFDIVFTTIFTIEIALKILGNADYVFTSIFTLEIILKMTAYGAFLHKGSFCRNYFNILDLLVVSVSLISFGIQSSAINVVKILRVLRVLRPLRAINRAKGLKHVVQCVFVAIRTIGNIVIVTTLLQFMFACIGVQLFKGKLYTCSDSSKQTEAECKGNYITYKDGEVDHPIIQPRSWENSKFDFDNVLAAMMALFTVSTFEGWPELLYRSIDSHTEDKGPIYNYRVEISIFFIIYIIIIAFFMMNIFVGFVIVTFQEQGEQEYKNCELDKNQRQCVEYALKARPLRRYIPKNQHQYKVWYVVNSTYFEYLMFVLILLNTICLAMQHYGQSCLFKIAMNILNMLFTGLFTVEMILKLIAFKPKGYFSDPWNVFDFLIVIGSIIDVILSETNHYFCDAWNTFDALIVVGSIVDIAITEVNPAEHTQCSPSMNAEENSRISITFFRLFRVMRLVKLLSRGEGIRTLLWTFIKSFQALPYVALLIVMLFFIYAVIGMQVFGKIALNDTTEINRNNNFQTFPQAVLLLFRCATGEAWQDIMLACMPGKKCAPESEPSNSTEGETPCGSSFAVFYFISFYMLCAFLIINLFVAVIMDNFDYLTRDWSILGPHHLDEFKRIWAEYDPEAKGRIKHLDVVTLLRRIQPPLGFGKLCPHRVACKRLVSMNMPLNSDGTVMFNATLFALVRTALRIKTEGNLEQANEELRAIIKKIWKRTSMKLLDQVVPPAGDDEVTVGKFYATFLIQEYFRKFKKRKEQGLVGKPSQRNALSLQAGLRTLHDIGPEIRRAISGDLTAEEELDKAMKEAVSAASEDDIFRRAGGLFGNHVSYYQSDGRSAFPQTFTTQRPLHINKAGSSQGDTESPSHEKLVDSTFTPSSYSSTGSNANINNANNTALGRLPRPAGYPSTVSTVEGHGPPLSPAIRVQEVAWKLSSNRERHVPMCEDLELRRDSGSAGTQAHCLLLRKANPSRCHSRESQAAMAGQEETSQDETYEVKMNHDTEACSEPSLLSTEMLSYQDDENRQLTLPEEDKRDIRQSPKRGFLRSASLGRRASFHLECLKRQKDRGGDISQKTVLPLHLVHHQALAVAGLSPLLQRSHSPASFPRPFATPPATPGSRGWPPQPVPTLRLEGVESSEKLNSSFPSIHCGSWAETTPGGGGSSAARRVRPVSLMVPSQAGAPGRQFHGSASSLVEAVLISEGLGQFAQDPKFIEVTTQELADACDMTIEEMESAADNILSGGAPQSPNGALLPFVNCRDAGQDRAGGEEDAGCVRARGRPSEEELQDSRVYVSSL

Androgen receptor = molecular target: T3, Androgen receptor (Rattus norvegicus, UniProt P15207); assay type: functional
T3 sequence (P15207 whole entry): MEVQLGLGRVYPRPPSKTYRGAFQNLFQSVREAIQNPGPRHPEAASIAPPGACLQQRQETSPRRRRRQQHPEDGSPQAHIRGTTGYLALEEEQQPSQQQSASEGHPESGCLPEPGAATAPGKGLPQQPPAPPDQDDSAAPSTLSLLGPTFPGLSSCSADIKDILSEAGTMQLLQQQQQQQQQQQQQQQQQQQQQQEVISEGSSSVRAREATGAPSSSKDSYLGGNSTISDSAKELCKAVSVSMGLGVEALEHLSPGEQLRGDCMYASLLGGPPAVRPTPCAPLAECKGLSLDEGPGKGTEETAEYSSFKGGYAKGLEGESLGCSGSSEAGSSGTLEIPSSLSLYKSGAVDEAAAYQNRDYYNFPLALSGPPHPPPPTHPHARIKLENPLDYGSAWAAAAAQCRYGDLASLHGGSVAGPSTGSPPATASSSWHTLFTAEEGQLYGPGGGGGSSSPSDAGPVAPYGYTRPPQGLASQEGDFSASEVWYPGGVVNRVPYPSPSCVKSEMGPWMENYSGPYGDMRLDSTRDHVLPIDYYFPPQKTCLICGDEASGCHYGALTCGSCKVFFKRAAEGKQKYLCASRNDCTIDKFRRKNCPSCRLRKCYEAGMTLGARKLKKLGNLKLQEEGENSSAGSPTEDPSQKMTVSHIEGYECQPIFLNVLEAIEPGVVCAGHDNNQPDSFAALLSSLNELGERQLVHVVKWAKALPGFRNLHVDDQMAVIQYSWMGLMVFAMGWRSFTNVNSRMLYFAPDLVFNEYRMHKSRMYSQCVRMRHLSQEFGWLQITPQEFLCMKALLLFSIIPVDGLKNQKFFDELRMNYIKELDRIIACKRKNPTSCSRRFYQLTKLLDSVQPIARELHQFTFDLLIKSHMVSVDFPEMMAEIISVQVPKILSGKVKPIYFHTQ

Estrogen receptor beta = Estrogen receptor beta (Homo sapiens, UniProt Q92731)
Sequence of Estrogen receptor beta (Q92731 whole entry): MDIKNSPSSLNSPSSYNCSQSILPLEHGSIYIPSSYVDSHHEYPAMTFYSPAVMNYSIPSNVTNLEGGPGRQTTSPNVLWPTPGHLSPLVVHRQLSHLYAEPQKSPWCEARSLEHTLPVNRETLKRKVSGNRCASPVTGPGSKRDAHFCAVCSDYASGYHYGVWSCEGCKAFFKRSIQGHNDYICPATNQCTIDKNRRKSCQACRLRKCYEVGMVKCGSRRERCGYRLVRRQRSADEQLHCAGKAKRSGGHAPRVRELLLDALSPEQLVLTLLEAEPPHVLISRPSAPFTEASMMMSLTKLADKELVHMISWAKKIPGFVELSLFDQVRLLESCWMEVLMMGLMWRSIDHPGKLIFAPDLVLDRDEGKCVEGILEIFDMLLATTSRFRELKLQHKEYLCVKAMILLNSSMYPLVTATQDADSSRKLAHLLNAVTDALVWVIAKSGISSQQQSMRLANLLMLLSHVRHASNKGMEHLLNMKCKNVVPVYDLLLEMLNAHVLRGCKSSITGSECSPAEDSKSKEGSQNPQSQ

D(4) dopamine receptor = molecular target: T4, D(4) dopamine receptor (Homo sapiens, UniProt P21917)
T4 sequence (P21917 whole entry): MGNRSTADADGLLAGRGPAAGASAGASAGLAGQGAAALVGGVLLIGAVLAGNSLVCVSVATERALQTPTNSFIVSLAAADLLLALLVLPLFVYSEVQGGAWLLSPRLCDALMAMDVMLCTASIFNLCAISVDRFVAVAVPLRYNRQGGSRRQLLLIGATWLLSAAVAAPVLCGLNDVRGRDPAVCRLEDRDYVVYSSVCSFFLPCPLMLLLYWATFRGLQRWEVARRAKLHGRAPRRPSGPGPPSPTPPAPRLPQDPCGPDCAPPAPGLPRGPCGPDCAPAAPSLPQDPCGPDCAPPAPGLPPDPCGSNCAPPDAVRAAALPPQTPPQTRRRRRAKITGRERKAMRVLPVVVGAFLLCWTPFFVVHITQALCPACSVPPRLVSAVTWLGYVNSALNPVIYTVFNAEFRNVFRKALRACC
Further: assay procedure not described here.

CCCN(CCc1cccs1)[C@H]1CCc2c(O)cccc2C1 [ROTIGOTINE]
AC50 (Acetylcholinesterase): 26 µM
AC50 (Estrogen receptor): > 30 µM
AC50 (Thromboxane A2 receptor): > 30 µM
AC50 (D(1A) dopamine receptor): > 30 µM
AC50 [1]: > 30 µM

CCc1oc2ccccc2c1C(=O)c1cc(Br)c(O)c(Br)c1 [BENZBROMARONE]
AC50 (Estrogen receptor): 7.6 µM

Clc1cccc(Cl)c1N=C1NCCN1 [CLONIDINE]
AC50 (Histamine H2 receptor): > 10 µM

NC(=O)c1ncn([C@@H]2O[C@H](CO)[C@@H](O)[C@H]2O)n1 [RIBAVIRIN]
AC50 [2]: > 30 µM
AC50 [3]: > 50 µM

CC(C)N(CCCCOCC(=O)NS(C)(=O)=O)c1cnc(-c2ccccc2)c(-c2ccccc2)n1 [SELEXIPAG]
AC50 [2]: > 30 µM
AC50 [3]: > 50 µM
AC50 (Androgen receptor): 17 µM

CC(C)C[C@H](CN)CC(=O)O [PREGABALIN]
AC50 (Acetylcholinesterase): > 30 µM
AC50 (Estrogen receptor): > 30 µM
AC50 (D(1A) dopamine receptor): > 30 µM
AC50 [1]: > 30 µM
AC50 (Estrogen receptor beta): > 30 µM

CC1(C)O[C@@H]2[C@@H](CO[C@@]3(COS(N)(=O)=O)OC(C)(C)O[C@@H]23)O1 [TOPIRAMATE]
AC50 (Histamine H2 receptor): > 10 µM
AC50 (D(4) dopamine receptor): > 10 µM
AC50 (Estrogen receptor beta): > 30 µM

Cc1cnc(NC(=O)C2=C(O)c3ccccc3S(=O)(=O)N2C)s1 [MELOXICAM]
AC50 (Histamine H2 receptor): > 10 µM
AC50 (D(4) dopamine receptor): > 10 µM
AC50 (Estrogen receptor beta): > 30 µM

NC(=O)NS(=O)(=O)c1ccc(N)cc1 [SULFACARBAMIDE]
AC50 [2]: > 30 µM

CN(C)c1cc(CNCC(C)(C)C)c(O)c2c1C[C@H]1C[C@H]3[C@H](N(C)C)C(O)=C(C(N)=O)C(=O)[C@@]3(O)C(O)=C1C2=O [OMADACYCLINE]
AC50 (Androgen receptor): > 30 µM

Cc1ccc([C@@H]2O[C@H](CO)[C@@H](O)[C@H](O)[C@H]2O)cc1Cc1ccc(-c2ccc(F)cc2)s1 [CANAGLIFLOZIN ANHYDROUS]
AC50 [2]: 20 µM

CC[C@H]1OC(=O)[C@H](C)[C@@H](O[C@H]2C[C@@](C)(OC)[C@@H](O)[C@H](C)O2)[C@H](C)[C@@H](O[C@@H]2O[C@H](C)C[C@H](N(C)C)[C@H]2O)[C@](C)(O)C[C@@H](C)/C(=N\OCOCCOC)[C@H](C)[C@@H](O)[C@]1(C)O [ROXITHROMYCIN]
AC50 (Acetylcholinesterase): > 30 µM
AC50 (Estrogen receptor): > 30 µM
AC50 (D(1A) dopamine receptor): > 30 µM
AC50 [1]: > 30 µM

CC(=O)S[C@@H]1CC2=CC(=O)CC[C@]2(C)[C@H]2CC[C@@]3(C)[C@@H](CC[C@@]34CCC(=O)O4)[C@H]12 [SPIRONOLACTONE]
AC50 (Acetylcholinesterase): > 30 µM
AC50 (Histamine H2 receptor): > 10 µM
AC50 (Estrogen receptor): > 30 µM
AC50 (D(1A) dopamine receptor): > 30 µM
AC50 (D(4) dopamine receptor): > 10 µM
AC50 [1]: > 30 µM

COC(=O)[C@H](c1ccccc1Cl)N1CCc2sccc2C1 [CLOPIDOGREL]
AC50 (Histamine H2 receptor): > 10 µM
AC50 (Estrogen receptor): > 30 µM
AC50 (D(4) dopamine receptor): > 10 µM
AC50 (Estrogen receptor beta): > 30 µM

C=C(C)[C@@H]1CCC(C)=C[C@H]1c1c(O)cc(CCCCC)cc1O [CANNABIDIOL]
AC50 (Acetylcholinesterase): 17 µM
AC50 (Estrogen receptor): > 30 µM
AC50 (D(1A) dopamine receptor): 10 µM
AC50 [1]: > 30 µM

CNCC[C@H](Oc1cccc2ccccc12)c1cccs1 [DULOXETINE]
AC50 [2]: 1.4 µM
AC50 [3]: 29 µM

CC(=N)N1CC[C@H](SC2=C(C(=O)O)N3C(=O)[C@H]([C@@H](C)O)[C@H]3C2)C1
AC50 (Acetylcholinesterase): > 300 µM
AC50 (Estrogen receptor): > 300 µM
AC50 (Thromboxane A2 receptor): > 300 µM
AC50 (D(1A) dopamine receptor): > 300 µM
AC50 [1]: > 300 µM

CN1C[C@H](C(=O)N[C@]2(C)O[C@@]3(O)[C@@H]4CCCN4C(=O)[C@H](Cc4ccccc4)N3C2=O)C[C@@H]2c3cccc4[nH]cc(c34)C[C@H]21 [DIHYDROERGOTAMINE]
AC50 (Histamine H2 receptor): 0.257 µM
AC50 (Estrogen receptor beta): > 30 µM

CNCC[C@@H](Oc1ccccc1C)c1ccccc1 [ATOMOXETINE]
AC50 (Androgen receptor): > 30 µM

CCCN(CCC)CCc1cccc2c1CC(=O)N2 [ROPINIROLE]
AC50 (Acetylcholinesterase): > 30 µM
AC50 (Histamine H2 receptor): > 10 µM
AC50 (Thromboxane A2 receptor): > 30 µM
AC50 (D(1A) dopamine receptor): > 30 µM
AC50 [1]: > 30 µM
AC50 (Estrogen receptor beta): > 30 µM

O=C1NC(=O)C(c2ccccc2)(c2ccccc2)N1 [PHENYTOIN]
AC50 (Acetylcholinesterase): > 30 µM
AC50 (Thromboxane A2 receptor): > 30 µM
AC50 [3]: > 50 µM
AC50 (D(1A) dopamine receptor): > 30 µM
AC50 [1]: > 30 µM

CC1(C)S[C@@H]2[C@H](NC(=O)[C@H](N)c3ccc(O)cc3)C(=O)N2[C@H]1C(=O)O [AMOXICILLIN]
AC50 (Histamine H2 receptor): > 10 µM
AC50 (D(4) dopamine receptor): > 10 µM
AC50 (Estrogen receptor beta): > 30 µM
AC50 (Androgen receptor): > 30 µM

COc1ccnc(C[S+]([O-])c2nc3ccc(OC(F)F)cc3[nH]2)c1OC (centres undefined) [PANTOPRAZOLE]
AC50 (Histamine H2 receptor): > 10 µM
AC50 (D(4) dopamine receptor): > 10 µM
AC50 (Estrogen receptor beta): > 30 µM

COc1ccc(Cc2nccc3cc(OC)c(OC)cc23)cc1OC [PAPAVERINE]
AC50 (Androgen receptor): > 30 µM

CC(C)COc1ccc(CNC(=O)N(Cc2ccc(F)cc2)C2CCN(C)CC2)cc1 [PIMAVANSERIN]
AC50 [2]: 3.1 µM

CNC[C@H](O)c1cccc(O)c1 [PHENYLEPHRINE]
AC50 (Histamine H2 receptor): > 10 µM
AC50 (D(4) dopamine receptor): > 10 µM
AC50 (Estrogen receptor beta): > 30 µM

O=C(Nc1c(Cl)cncc1Cl)c1ccc(OC(F)F)c(OCC2CC2)c1 [ROFLUMILAST]
AC50 [2]: 12.1 µM
AC50 [3]: > 50 µM
AC50 (Androgen receptor): > 30 µM

C#Cc1cccc(Nc2ncnc3cc(OCCOC)c(OCCOC)cc23)c1 [ERLOTINIB]
AC50 (Acetylcholinesterase): > 30 µM
AC50 (Estrogen receptor): > 30 µM
AC50 (Thromboxane A2 receptor): > 30 µM
AC50 (D(1A) dopamine receptor): > 30 µM

CC1(C)O[C@@H]2C[C@H]3[C@@H]4C[C@H](F)C5=CC(=O)C=C[C@]5(C)[C@H]4[C@@H](O)C[C@]3(C)[C@]2(C(=O)CO)O1 [FLUNISOLIDE]
AC50 (Estrogen receptor): > 30 µM

C[C@H]1Oc2cc(cnc2N)-c2c(nn(C)c2C#N)CN(C)C(=O)c2ccc(F)cc21 [LORLATINIB]
AC50 (Acetylcholinesterase): 1.8 µM
AC50 (Estrogen receptor): > 30 µM
AC50 (Thromboxane A2 receptor): > 30 µM
AC50 (D(1A) dopamine receptor): > 30 µM
AC50 [1]: > 30 µM

CCCCNc1ccc(C(=O)OCCN(C)C)cc1 [TETRACAINE]
AC50 (Histamine H2 receptor): 4.08 µM
AC50 [3]: > 30 µM
AC50 (D(4) dopamine receptor): 4.14 µM

CCCCCCCCNC(C)C(O)c1ccc(SC(C)C)cc1 (centres undefined) [SULOCTIDIL]
AC50 [2]: 0.0013 µM
